Experiment [1] addresses T1, Rac GTPase-activating protein 1 (Homo sapiens, UniProt Q9H0H5).
T1 sequence (Q9H0H5 whole entry): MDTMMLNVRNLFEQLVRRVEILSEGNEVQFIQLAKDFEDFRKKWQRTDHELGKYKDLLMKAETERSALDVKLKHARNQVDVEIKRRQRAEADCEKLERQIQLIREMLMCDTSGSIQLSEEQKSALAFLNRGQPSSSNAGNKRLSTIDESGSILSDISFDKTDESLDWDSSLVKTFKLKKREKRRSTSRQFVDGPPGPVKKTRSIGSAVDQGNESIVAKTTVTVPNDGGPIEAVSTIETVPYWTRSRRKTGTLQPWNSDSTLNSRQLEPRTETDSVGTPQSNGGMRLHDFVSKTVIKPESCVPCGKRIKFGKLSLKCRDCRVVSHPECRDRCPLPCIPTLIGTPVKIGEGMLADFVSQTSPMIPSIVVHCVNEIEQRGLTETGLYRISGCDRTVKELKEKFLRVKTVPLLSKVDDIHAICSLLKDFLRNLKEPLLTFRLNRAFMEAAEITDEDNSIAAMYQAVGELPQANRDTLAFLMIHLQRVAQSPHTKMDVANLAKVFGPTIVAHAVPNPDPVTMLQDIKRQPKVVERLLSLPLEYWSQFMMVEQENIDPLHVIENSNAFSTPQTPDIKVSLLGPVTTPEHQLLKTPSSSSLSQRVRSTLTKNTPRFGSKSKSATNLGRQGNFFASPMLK
In words: MgcRacGAP GTPase-activating activity inhibitors, confirmation, biochemical, ADP Hunter fluorescence, primary and confirmatory (AID 624330). In kind it is functional.

The next experiment deals with ORF 73 (Human herpesvirus 8, UniProt O40947). In words: inhibitors of C-LANA binding to LBS DNA, dose response, biochemical, fluorescence polarization, cherry-picked samples (AID 504725).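 Further: fluorescence polarization of a labeled DNA duplex reporting LANA DNA binding; potency is for inhibitors that block LANA binding to the DNA.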 Further details: species or system Human gammaherpesvirus 8.
Chain of ORF 73 (O40947 whole entry): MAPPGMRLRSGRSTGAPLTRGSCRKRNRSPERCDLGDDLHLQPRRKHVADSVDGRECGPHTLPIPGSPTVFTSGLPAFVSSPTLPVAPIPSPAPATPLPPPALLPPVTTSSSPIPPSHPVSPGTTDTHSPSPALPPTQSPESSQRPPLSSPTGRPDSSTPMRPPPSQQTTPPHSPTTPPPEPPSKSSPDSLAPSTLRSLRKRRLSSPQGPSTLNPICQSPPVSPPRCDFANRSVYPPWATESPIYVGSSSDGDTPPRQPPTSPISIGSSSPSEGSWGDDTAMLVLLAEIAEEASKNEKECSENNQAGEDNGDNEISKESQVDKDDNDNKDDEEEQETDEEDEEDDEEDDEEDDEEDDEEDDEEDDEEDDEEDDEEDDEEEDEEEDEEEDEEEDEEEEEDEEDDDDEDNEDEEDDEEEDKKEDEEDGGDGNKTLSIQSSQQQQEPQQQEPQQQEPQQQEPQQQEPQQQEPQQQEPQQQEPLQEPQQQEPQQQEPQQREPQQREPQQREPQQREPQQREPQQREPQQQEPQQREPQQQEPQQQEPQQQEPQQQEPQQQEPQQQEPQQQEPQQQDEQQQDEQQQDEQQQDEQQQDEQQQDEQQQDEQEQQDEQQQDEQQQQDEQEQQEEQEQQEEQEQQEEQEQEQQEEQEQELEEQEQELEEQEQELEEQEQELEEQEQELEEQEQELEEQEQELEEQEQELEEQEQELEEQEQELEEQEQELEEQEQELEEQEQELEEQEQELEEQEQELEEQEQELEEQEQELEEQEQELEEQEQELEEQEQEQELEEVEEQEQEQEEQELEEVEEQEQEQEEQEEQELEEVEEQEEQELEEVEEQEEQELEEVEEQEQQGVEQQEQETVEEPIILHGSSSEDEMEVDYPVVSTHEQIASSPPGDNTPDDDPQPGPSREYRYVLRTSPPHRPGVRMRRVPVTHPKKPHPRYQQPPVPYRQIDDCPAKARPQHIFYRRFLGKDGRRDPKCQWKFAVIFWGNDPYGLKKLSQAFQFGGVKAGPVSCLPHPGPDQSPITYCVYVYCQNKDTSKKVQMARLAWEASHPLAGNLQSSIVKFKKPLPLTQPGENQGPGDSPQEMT
In the next experiment the test system is HeLa. Briefly: HeLa cell cytotoxicity, dose response, cytotoxicity control, 24 h, cherry-picked samples (AID 504726).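 Further: potency for cytotoxicity as loss of luminescence signal.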 In kind it is functional, cell-based. As to conditions: Homo sapiens.
A short description of experiment [2]: HeLa cell cytotoxicity, dose response, cytotoxicity control for MgcRacGAP inhibitor project (AID 624300). Format: functional.
Another experiment concerns the target Protein S100-A4 (Homo sapiens, UniProt P26447). In words: S100A4-myosin IIA binding inhibitor potency, dose response, biochemical, fluorescence polarization, cherry-picked hits (AID 687001). In kind it is functional.
A further experiment concerns the target Nonstructural protein 1 (Influenza A virus, UniProt Q194T2). Format: functional, Influenza A virus (A/California/07/2009(H1N1)).
The next experiment deals with Paired box protein Pax-8 (Homo sapiens, UniProt Q06710). In words: inhibitors of PAX8-driven TPO luciferase reporter, dose response, RMG-I cells, cherry-pick (AID 687027).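 Further: luciferase reporter driven by Pax8 target thyroperoxidase promoter measured by SteadyGlo luminescence.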 In kind it is functional, cell-based.
Chain of Paired box protein Pax-8 (Q06710 whole entry): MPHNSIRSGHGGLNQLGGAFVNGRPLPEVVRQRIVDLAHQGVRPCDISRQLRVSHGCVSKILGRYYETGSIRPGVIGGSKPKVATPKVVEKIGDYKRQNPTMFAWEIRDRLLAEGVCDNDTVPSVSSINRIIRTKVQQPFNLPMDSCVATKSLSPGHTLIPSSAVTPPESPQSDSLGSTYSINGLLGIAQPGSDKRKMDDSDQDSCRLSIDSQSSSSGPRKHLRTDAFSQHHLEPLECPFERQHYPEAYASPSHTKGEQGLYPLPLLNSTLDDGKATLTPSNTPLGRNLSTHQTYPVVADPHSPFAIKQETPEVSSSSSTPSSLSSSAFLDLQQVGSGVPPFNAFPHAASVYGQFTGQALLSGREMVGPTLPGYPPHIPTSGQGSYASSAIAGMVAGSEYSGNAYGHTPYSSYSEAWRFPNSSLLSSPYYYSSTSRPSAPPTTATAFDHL
In experiment [3] the target is T2, Kappa-type opioid receptor (Homo sapiens, UniProt P41145). Format: functional.
T2 sequence (P41145 whole entry): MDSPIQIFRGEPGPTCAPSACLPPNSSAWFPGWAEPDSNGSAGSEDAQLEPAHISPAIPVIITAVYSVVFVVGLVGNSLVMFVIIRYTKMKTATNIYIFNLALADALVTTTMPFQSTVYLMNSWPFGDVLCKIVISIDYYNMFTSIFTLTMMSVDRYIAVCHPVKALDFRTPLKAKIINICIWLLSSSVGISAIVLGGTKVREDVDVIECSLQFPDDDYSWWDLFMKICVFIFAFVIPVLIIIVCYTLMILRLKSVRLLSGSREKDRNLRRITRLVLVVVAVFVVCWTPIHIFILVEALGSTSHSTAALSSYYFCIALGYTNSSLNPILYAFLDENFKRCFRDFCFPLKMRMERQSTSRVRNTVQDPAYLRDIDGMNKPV
For another experiment, the target named is Beta-galactosidase (Escherichia coli, UniProt Q8VNN2). In kind it is functional.
Chain of Beta-galactosidase (Q8VNN2 whole entry): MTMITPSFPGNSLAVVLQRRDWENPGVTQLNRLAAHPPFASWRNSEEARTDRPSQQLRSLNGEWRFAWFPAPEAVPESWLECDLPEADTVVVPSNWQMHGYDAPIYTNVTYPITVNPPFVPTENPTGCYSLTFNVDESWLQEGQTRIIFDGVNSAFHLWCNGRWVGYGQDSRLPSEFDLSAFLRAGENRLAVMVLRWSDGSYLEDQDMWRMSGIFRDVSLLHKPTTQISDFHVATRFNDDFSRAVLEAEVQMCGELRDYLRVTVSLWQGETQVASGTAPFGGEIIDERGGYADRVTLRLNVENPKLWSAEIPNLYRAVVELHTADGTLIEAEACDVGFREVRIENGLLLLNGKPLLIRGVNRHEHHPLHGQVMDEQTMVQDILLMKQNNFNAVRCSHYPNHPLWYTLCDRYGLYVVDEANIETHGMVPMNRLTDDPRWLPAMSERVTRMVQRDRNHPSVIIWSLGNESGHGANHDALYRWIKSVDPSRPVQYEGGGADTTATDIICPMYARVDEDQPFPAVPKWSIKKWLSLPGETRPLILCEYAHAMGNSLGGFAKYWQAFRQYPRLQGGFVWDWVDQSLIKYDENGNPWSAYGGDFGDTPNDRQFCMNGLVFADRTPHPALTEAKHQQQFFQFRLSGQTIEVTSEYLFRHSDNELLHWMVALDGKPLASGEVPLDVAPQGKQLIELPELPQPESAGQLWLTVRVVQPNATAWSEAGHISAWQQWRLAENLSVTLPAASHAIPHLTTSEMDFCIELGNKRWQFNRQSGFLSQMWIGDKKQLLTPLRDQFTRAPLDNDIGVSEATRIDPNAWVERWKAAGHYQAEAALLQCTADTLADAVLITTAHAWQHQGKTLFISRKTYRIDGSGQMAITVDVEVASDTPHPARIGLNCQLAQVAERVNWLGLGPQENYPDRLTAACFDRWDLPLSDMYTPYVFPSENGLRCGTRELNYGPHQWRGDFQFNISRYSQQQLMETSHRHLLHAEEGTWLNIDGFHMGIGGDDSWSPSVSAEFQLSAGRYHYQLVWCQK
Experiment [4] has as its target T2, Kappa-type opioid receptor. Format: functional. The source holds these as a separate data set.
A further experiment deals with Streptococcus. Briefly: Group A Streptococcus viability loss, dose response, counter-screen for streptokinase expression inhibitor project, luminescence, BacTiterGlo (AID 1915).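 Further: potency for reduction of bacterial viability or growth.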 In kind it is functional, organism-based.
The target in experiment [5] is T3, Small ubiquitin-related modifier 1 (Homo sapiens, UniProt P63165). Briefly: inhibitors of SUMO1 peptide binding, dose response, biochemical, fluorescence polarization, uHTS hits (AID 624382). In kind it is functional. To be noted: read-out: IC50_Mean.
T3 sequence (P63165 whole entry): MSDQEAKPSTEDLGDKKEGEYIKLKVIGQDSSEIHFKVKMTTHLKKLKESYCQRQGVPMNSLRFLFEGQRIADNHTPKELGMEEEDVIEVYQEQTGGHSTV
In experiment [6] the test system is Streptococcus sp. 'group A'. Briefly: growth inhibition of control SK(-) GAS strain, dose response, counter-screen for streptokinase expression inhibitor project, luminescence, kanamycin, BacTiterGlo, confirmation (AID 1900). Format: functional, organism-based.
A short description of experiment [7]: HIV-1 Env-mediated cell fusion inhibitors, dose response, CCR5-tropic Env (AID 2279). In kind it is functional.
Experiment [8] concerns the target T4, Small ubiquitin-related modifier 2 (Homo sapiens, UniProt P61956). In words: inhibitors of SUMO2 protein-protein interaction, dose response, selectivity assay for SUMO1 interaction inhibitor project, biochemical, FRET, human SUMO2, uHTS hits (AID 624384). Format: functional. To be noted: read-out: IC50_Mean.
Experiment [9] has as its target T3, Small ubiquitin-related modifier 1. In words: inhibitors of SUMO1 partner interactions, dose response, biochemical, FRET (AID 624383). To be noted: read-out: IC50_Mean. Format: functional.
Experiment [10] can be described thus: Cytotoxicity screening for potential Inhibitors of Bacterial Capsule Biogenesis. [Related pubchem assays (depositor defined):AID488970]. Format: functional.
The target in experiment [11] is T4, Small ubiquitin-related modifier 2. In words: SUMO2–SIM peptide binding inhibitors, dose response, selectivity assay for SUMO1 interaction inhibitor project, biochemical, fluorescence polarization, uHTS hits (AID 624385). In kind it is functional. As to conditions: read-out: IC50_Mean.

Active and inactive are the calls of the source. A value given as a limit tells only on which side of the number the result lay.

T4 sequence (P61956 whole entry): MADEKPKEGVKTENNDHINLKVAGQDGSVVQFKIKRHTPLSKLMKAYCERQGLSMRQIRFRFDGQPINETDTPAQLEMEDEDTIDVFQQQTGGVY
Chain of Protein S100-A4 (P26447 whole entry): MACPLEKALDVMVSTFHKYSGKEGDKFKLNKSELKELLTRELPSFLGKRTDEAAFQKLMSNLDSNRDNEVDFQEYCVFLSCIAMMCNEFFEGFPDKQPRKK
Chain of Nonstructural protein 1 (Q194T2 whole entry): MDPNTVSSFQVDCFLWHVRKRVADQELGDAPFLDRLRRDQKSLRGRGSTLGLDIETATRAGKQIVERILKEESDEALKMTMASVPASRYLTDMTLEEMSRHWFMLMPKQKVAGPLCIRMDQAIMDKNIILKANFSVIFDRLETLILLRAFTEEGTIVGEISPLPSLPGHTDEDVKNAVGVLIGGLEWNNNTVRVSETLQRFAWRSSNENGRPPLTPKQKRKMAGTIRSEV

For `COc1cccc2c1C(=O)c1c(O)c3c(c(O)c1C2=O)CC(O)(C(C)=NNC(=O)c1ccc(Cl)c(Cl)c1)CC3OC1CC(N)C(O)C(C)O1` (stereo not drawn), the IC50 in experiment [1] is 54.9 µM (active); on Nonstructural protein 1 it was 3.67 µM (active). Also, the AC50 at ORF 73 was 13.2 µM (active); in the experiment with HeLa, 3.38 µM (active); on Protein S100-A4 it was 0.562 µM (active); on Paired box protein Pax-8, 4.72 µM (active). Besides, in experiment [2], the CC50 was 9.6 µM (active).
Consider `C=CC/N=c1\scc(-c2ccc3c(c2)NC(=O)CO3)n1/N=C(\C)c1ccccn1`, for which the IC50 in experiment [3] was over 32 µM; in experiment [4] it was 10.1 µM (active). Moreover, the EC50 on Beta-galactosidase was > 31.5 µM (inactive).
As to `O=C(COc1ccc(Cl)cc1Cl)Nc1ccc(C(=O)Nc2ccccc2C(=O)O)cc1`, the half-maximal effective concentration (EC50) is > 150 µM (not active) with Streptococcus and 3.72 µM (active) in experiment [6]. The IC50 is 2.7 µM (active) in [5]; > 50 µM (active) in experiment [7]; 48.1 µM (inactive) in experiment [8]; 11.3 µM (active) in [9]; 13.3 µM (active) in experiment [11]. The CC50 in experiment [10] is 45.3 µM (active).

The record behind these values is ChEMBL document CHEMBL1201862, “PubChem BioAssay data set” (2004).
